Reference: paper PMC9486168, “Protein-protein interaction-based high throughput screening for adenylyl cyclase 1 inhibitors: Design, implementation, and discovery of a novel chemotype” (Frontiers in Pharmacology, 2022)
“And” between values parts separate entries of the source, which are not always exact repeats. Equal values may be shown once.

What was measured:
AC1-C1b/CaM = target: T1, AC1-C1b/CaM (Homo sapiens, UniProt P0DP23); assay: AC1-C1b/CaM fluorescence polarization (FP) assay; format: binding; details: for IC50: 100 nM AC1-C1b, 100 nM GST-CaM, 95% CI in brackets; for Ki: Cheng-Prusoff from FP IC50 and Kd; for AC1-CaM FP % inhib: relative to 100 μM CDZ (100% inhibition), highest concentration tested
T1 construct: made in house; host or cells: E. coli BL21-CodonPlus (DE3)-RIPL

AC8-Nt/CaM = target: T2, AC8-Nt/CaM (Homo sapiens, UniProt P0DP23); assay: AC8-Nt/CaM FP counterscreen assay; format: binding; details: for Ki / Ki (μM) AC8 NT: Cheng-Prusoff from FP IC50 and Kd, n/i given where none; for Ki ratio (AC8 NT/AC1): ratio >1: more potent in AC1/CaM FP;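 on all read-outs here: fluorescence polarization of AC peptide binding GST-CaM in HEPES buffer with CaCl2, compound preincubated with CaM 30 min, peptide read after 2 h at room temperature in dark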
T2 construct: made in house; host or cells: E. coli BL21-CodonPlus (DE3)-RIPL

AC8-C2b/CaM = target: T3, AC8-C2b/CaM (Homo sapiens, UniProt P0DP23); assay: AC8-C2b/CaM FP counterscreen assay; format: binding; details: for Ki / Ki (μM) AC8 C2b: Cheng-Prusoff from FP IC50 and Kd, n/i given where none; for Ki ratio (AC8-C2b/AC1): ratio >1: more potent in AC1/CaM FP;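 on all read-outs here: fluorescence polarization of AC peptide binding to GST-CaM in HEPES buffer with KCl and 50 µM CaCl2, compound preincubated 30 min with GST-CaM, DMSO and calmidazolium as controls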
T3 construct: made in house; host or cells: E. coli BL21-CodonPlus (DE3)-RIPL

AC1/CaM PPI = target: T4, AC1/CaM PPI (Homo sapiens, UniProt P0DP23); assay: AC1/CaM NanoBiT assay in HEK293T cells; format: cell-based; details: HEK293T, thapsigargin-stimulated, AUC; for IC50: read-out: Nanobit: AC1-CaM IC50 (μM ± SEM)
T4 construct: human AC1 (hAC1) residues 1–1,118 were cloned; The hCaM residues 1–149, residues 1–1,248 of rat AC8 (rAC8); expressed in transfected cells; host or cells: HEK293T, transient transfection

AC8/CaM PPI = target: T5, AC8/CaM PPI (Homo sapiens, UniProt P0DP23); assay: AC8/CaM NanoBiT assay in HEK293T cells; format: cell-based, rat; details: for IC50: HEK293T, thapsigargin-stimulated, AUC, read-out: Nanobit: AC8-CaM IC50 (μM ± SEM)
T5 construct: confirmed as an AC1/AC8 non-selective hit against full-length AC1- and AC8-CaM in the NanoBiT assay; The hCaM residues 1–149, residues 1–1,248 of rat AC8 (rAC8); expressed in transfected cells; host or cells: HEK293T, transient transfection

[1] = CellTiter-Glo 2.0 cell viability assay; format: cell-based; details: human, HEK293T cells, pH 7.4; at the compound's AC1/CaM NanoBiT IC50 concentration; read-out: % Viable Cells at AC1 IC50;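 further: luminescence read-out after 30 min compound exposure at 37 °C in HEPES-buffered HBSS, scaled to vehicle-treated cells as 100% and cell-free buffer wells as 0%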
AC1 = target: T6, AC1 (Homo sapiens, UniProt Q08828); assay: cAMP accumulation assay, AC1-HEK Δ3/6 KO cells; format: cell-based; details: for IC50: initial examination, 10,000 cells per well, 3 μM A23187, 1 h RT, read-out: AC1 IC50 ± SEM
T6 construct: expressed in transfected cells
Protocol: Cells were then incubated for 1 h at 37°C and 5% CO2. Cells were then treated with varying concentrations of inhibitors for 30 min, followed by treatment with calcium ionophore A23187 (3 μM) in 500 μM 3-isobutyl-1-methylxanthine (IBMX), a phosphodiesterase inhibitor, for 1 h at RT (Sigma Aldrich, St. Louis, MO). Finally, Cisbio HTRF detection reagents were added and incubated for 1–24 h at RT. Plates were read according to manufacturer’s protocol on an HTRF-compatible plate reader at 620 and 665 nm cAMP concentrations were interpolated from a cAMP standard curve. […] For cytotoxicity assays, compounds were tested at 30 μM and this protocol was used with the exception of detection reagents; CellTiter-Glo 2.0 reagent was used according to manufacturer’s protocol and luminescence was read on the Synergy Neo2 plate reader. Data are normalized to cells treated with vehicle (100%) or 2% tween (0%) and are represented as the percent of vehicle, from the average of three independent experiments (N = 3).

T6 sequence (Q08828 whole entry): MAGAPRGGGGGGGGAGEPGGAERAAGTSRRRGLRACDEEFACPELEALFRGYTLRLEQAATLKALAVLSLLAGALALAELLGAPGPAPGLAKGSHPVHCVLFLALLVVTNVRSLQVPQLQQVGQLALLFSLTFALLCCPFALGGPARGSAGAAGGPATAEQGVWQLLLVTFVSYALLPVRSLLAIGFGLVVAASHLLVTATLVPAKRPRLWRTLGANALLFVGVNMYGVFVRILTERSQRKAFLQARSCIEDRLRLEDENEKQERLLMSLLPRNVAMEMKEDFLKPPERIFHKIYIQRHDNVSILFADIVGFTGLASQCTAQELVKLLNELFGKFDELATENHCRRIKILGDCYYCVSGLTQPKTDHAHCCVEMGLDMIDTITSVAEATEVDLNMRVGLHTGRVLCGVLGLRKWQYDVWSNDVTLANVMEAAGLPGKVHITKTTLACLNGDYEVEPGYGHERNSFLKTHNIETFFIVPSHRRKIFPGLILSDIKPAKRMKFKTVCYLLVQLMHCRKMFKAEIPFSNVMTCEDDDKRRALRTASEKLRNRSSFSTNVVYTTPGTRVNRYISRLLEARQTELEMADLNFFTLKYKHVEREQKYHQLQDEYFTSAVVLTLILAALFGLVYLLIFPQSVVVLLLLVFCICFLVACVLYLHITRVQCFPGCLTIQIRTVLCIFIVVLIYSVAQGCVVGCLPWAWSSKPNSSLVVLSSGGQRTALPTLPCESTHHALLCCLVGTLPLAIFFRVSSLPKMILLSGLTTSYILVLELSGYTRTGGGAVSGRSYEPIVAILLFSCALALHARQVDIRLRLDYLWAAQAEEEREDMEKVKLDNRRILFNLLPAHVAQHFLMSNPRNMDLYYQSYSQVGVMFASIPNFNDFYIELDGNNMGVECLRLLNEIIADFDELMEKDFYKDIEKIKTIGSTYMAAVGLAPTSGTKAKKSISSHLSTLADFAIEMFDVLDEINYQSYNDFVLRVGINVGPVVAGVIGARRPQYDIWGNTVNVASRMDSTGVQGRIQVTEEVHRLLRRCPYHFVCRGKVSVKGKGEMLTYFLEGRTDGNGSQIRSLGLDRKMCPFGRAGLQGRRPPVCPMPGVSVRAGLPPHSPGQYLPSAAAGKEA

| Compound | IC90 (AC1-C1b/CaM) [µM] | IC50 (AC1-C1b/CaM) | Ki (AC1-C1b/CaM) [µM] | Ki (AC8-Nt/CaM) [µM] | Ki (AC8-C2b/CaM) [µM] | IC50 (AC1/CaM PPI) [µM] | IC50 (AC8/CaM PPI) [µM] | viability at 30 min [1] [%] | AC1-CaM FP % inhib (AC1-C1b/CaM) [%] | Ki ratio (AC8 NT/AC1) (AC8-Nt/CaM) | Ki ratio (AC8-C2b/AC1) (AC8-C2b/CaM) | fold selective for AC8 over AC1 in the NanoBiT assay (AC8/CaM PPI; AC8/CaM vs AC1/CaM NanoBiT) | inhibition of AC1 activity (efficacy) (AC1; initial characterization of hits, data not shown) [%] | IC50 (AC1) [µM] | Ki (μM) AC8 NT (AC8-Nt/CaM) | Ki (μM) AC8 C2b (AC8-C2b/CaM) | Nanobit: AC1-CaM IC50 (μM ± SEM) (AC1/CaM PPI) |
| --- | --- | --- | --- | --- | --- | --- | --- | --- | --- | --- | --- | --- | --- | --- | --- | --- | --- |
| Clc1ccc(C(c2ccc(Cl)cc2)n2cc[n+](CC(OCc3ccc(Cl)cc3Cl)c3ccc(Cl)cc3Cl)c2)cc1 (centres unmarked) [CDZ, Calmidazolium] | ~100 | 15.1 µM and ~15 µM |  |  |  |  |  |  |  |  |  |  |  |  |  |  |  |
| CN(C)c1ccc2nc3ccc(=[N+](C)C)cc-3sc2c1 [Compound 2, Methylene Blue] |  | 2.18 µM | 0.51 | 3.2 | 0.82 | 98 ± 1.14 | 80.3 ± 1.14 | 86 |  |  |  |  |  |  |  |  |  |
| CCCCCCCCCCCCCCCC[N+](C)(C)CCN(Cc1ccc(OC)cc1)c1ncccn1 [Compound 4, Thonzonium] |  | 4.14 µM | 1 | 2.7 | 3.6 | 29.1 ± 1.2 | 18.5 ± 1.26 | 100 | 94 | 2.7 | 3.7 |  |  |  |  |  |  |
| CCC(C)CC(C)CCCCCCCCC(=O)NC1CC(O)C(NCCN)NC(=O)C2C(O)CCN2C(=O)C(C(O)CCN)NC(=O)C(C(O)C(O)c2ccc(O)cc2)NC(=O)C2CC(O)CN2C(=O)C(C(C)O)NC1=O (centres unmarked) [Compound 5, Caspofungin Acetate] |  | 12.7 µM | 3 | 6.3 | 6.2 |  |  |  | 20 | 2 and 2.1 | 2 and 2.1 |  |  |  |  |  |  |
| CC1=C(CCC(=O)O)c2cc3[nH]c(cc4nc(cc5[nH]c(cc1n2)c(C)c5C(C)O)C(C)=C4C(C)O)c(C)c3CCC(=O)O (centres unmarked) [Compound 6, Hematoporphyrin] |  | 14.7 µM | 3.5 | 61.7 | 10.1 | 38.4 ± 1.17 | 11.6 ± 1.24 | 95 | 131 | 17.8 | 2.9 | 2- to 4 fold |  |  |  |  |  |
| CN(C(=O)CN(CCO)CC(=O)N(C)C(C)(C)Cc1ccccc1)C(C)(C)Cc1ccccc1 [Compound 8, Oxetacaine] |  | 20 µM | 4.7 | 38 | 33.5 | 40 ± 1.15 | 34.6 ± 1.32 | 93.3 | 38 | 8.0 | 7.1 |  |  |  |  |  |  |
| CCc1oc2ccccc2c1C(=O)c1cc(Br)c(O)c(Br)c1 [Compound 12, Benzbromarone] |  | 33 µM | 7.8 | 52.1 | 23.8 | 1.7 ± 1.17 | 4.16 ± 1.15 | 90 | 47 |  |  |  | ~75 | 4.09 ± 2.41 |  |  |  |
| CCC12CN3CC(CC)(CN(C1)C31C(=O)N(C)c3ccc(Br)cc31)C2=O (centres unmarked) [Compound 14] |  | 58.2 µM | 13.8 |  |  | 84 ± 1.7 |  | 100 |  | AC1 Selective | AC1 Selective |  |  |  | n/i | n/i |  |
| CCNC(=O)c1cc2c(=O)n(C)c(=O)n(C)c2s1 [Compound 16] |  | 24.2 µM | 5.7 |  |  |  |  |  |  | AC1 Selective | AC1 Selective |  |  |  | n/i | n/i | No Inhibition |
| CN1CCN(CCNC(=O)c2cc3c(=O)n(C)c(=O)n(C)c3s2)CC1 [Compound 17] |  | 75.4 µM | 17.8 |  |  |  |  |  | 53 | AC1 Selective | AC1 Selective |  |  |  | n/i | n/i | No Inhibition |
| Cc1ccc(S(=O)(=O)Nc2cc(N3CCCS3(=O)=O)ccc2C)cc1 [Compound 19] |  | 43.4 µM | 10.3 |  |  |  |  |  |  | AC1 Selective | AC1 Selective |  |  |  | n/i | n/i | No Inhibition |
| CNC(=O)C1=C(Nc2ccc(N(C)C)cc2)c2ccccc2S1(=O)=O [Compound 20] |  | 43 µM | 10.2 | 5.9 | 4.5 | 63 ± 1.34 | 70.3 ± 1.13 | 100 | ~70 | 0.58 | 0.44 |  |  | 66.3 ± 33.3 |  |  |  |
